Counter-ions that a name gives are not always drawn.
Tested on: cutaneous trunci muscle reflex
Experiment: guinea pig pin-prick assay, local anesthetic efficacy of subcutaneously implanted sponges
Format: in vivo
Settings: subcutaneous implant (sponge about 0.5 g) or 0.5 mL solution injected, n=6
Excerpt: To evaluate in vivo the local anesthetic efficacy of the drug-loaded implanted thermosensitive hydroxypropyl chitin sponges prepared in Example 1, guinea pig pin-prick assay was employed in this invention. Guinea pigs (around 300 g) were induced and maintained with isoflurane. Then the left backs of guinea pigs were shaved before treatment. One longitudinal skin incision with 1.5 cm in length was made by a scalpel at 2 cm left of ridge midline on the back of the guinea pig. Subsequently, one cuboid sponge about 0.5 g (1 cm×1 cm×0.5 cm) was put right in the middle of the incision below the skin. The incision was finally stitched up. 36 animals were randomly divided into six experimental groups with each of 6: group 1: BPV-loaded 0.8B %-HPCH (3.6 wt %) sponge, group 2: 0.8B %-collagen/HPCH (0.6/3.0 wt %) sponge, group 3: 1.2B %-HPCH (3.6 wt %) sponge, group 4: 2.4B %-HPCH (3.6 wt %) sponge, 0.8%-BPV group 5 (0.8 wt % BPV solution) and sham-operated group 6. As for sham-operated group, the incision was made and stitched up without placing a sponge. For BPV solution group, a volume of 0.5 mL 0.8% BPV solution was injected subcutaneously near the skin incision using 30-gage hypodermic needle. […] The nociceptive blockade score (N %) was calculated as following equation: N %=n/8×100%. […]

For `CCCCN1CCCCC1C(=O)Nc1c(C)cccc1C` (stereo not shown) [0.8%-BPV, bupivacaine hydrochloride], the “effective duration of blockade (time with nociceptive blockade score≥50%)” value was 1 h.

Reference: patent publication US20250041209A1, “THERMOSENSITIVE MODIFIED CHITIN SPONGE DRUG-LOADED IMPLANTED SUSTAINED-RELEASE SYSTEM, PREPARATION METHOD THEREFORE, AND USE THEREOF” (priority 2022, published 2025)
